Data from US20260232625A1, “NOVEL DECURSIN DERIVATIVE AND USE THEREOF FOR PREVENTING OR TREATING NON-SMALL CELL LUNG CANCER” (JAEIN R&P INC., priority 2023, published 2026).
pIC50: −log10 of the molar value.

tested on: A549; test: MTT cytotoxicity evaluation against A549 cells; format: cell-based, human; conditions: Homo sapiens, A549, 48 h, Method 1: 12.5-200 μM, 48 hours
Procedure: A549 (human lung cancer cells) were obtained from the American Type Culture Collection (ATCC) and used. The cells were cultured in a medium containing 10% FBS, 1% penicillin (10,000 units/mL), and streptomycin (10 mg/mL), or in Dulbecco's Modified Eagle's Medium (DMEM), at 37° C. under 5% CO2 conditions.
To measure cytotoxicity, an MTT assay was used. Specifically, A549 cells cultured according to Experimental Example 1 were seeded into a 96-well plate at a density of 2.5×10^4 cells/mL in 100 μL, and incubated for 24 hours. Thereafter, the cells were treated with either the compounds prepared according to Examples 1 to 27 or, as comparative agents, decursin or docetaxel. The prepared compounds and decursin were each administered to the A549 cell line at concentrations of 0 μM (untreated), 12.5 μM, 25 μM, 50 μM, 100 μM, and 200 μM, while docetaxel was administered at concentrations of 0 nM (untreated), 0.1 nM, 1 nM, 10 nM, 100 nM, and 1,000 nM, followed by incubation for an additional 48 hours. Then, 20 μL of MTT solution was added (Method 1). Alternatively, the compounds prepared according to Examples 28 to 30, the compound of Example 5 as a reference compound or, as comparative agents, decursin or docetaxel, were used. The prepared compounds, the compound of Example 5, and decursin were each administered at concentrations of 0 μM (untreated), 3.125 μM, 6.25 μM, 12.5 μM, 25 μM, and 50 μM, while docetaxel was administered at concentrations of 0 nM (untreated), 0.6 nM, 1.25 nM, 2.5 nM, 5 nM, and 10 nM, and treated in the same manner as described in Method 1 (Method 2). The cells treated with MTT solution were incubated for 2 hours, the medium was removed, and the formazan blue crystals formed by the cells were treated with an MTT lysis buffer, followed by incubation in a cell incubator for 24 hours. The MTT lysis buffer was prepared by mixing N,N-dimethylformamide with water in a 1:1 ratio to give a solution containing 20% SIDS (sodium dodecyl sulfate) at the final concentration. The optical density at 590 nm was measured using a microplate reader (FIGS. 1a to 1d). Based on the measured values, the cytotoxicity (IC50) against A549 was calculated, and the results are disclosed in Table 1 together with the structural formulae.

Question: How did the pIC50 turn out when `CC(C)=CC(=O)O[C@H]1Cc2cc3ccc(=O)oc3cc2OC1(C)C` [Decursin, decursin] was run?
Answer: 4.36

Question: `CC1(C)Oc2cc3oc(=O)ccc3cc2C[C@@H]1OC(=O)CCn1ccnc1` [Example 1, (S)-2,2-dimethyl-8-oxo-2,3,4,8-tetrahydropyrano[3,2-g]chromen-3-yl 3-(1H-imidazol-1-yl)propanoate] was tested. Which pIC50 did it give?
Answer: < 3.70

Question: How did the pIC50 turn out when `CC1(C)Oc2cc3oc(=O)ccc3cc2C[C@@H]1OC(=O)CCc1ccccn1` [Example 2, (S)-2,2-dimethyl-8-oxo-2,3,4,8-tetrahydropyrano[3,2-g]chromen-3-yl 3-(pyridin-2-yl)propanoate] was run?
Answer: < 3.70

Question: `CC1(C)Oc2cc3oc(=O)ccc3cc2C[C@@H]1OC(=O)/C=C/c1ccccn1` [Example 3, (S,E)-2,2-dimethyl-8-oxo-2,3,4,8-tetrahydropyrano[3,2-g]chromen-3-yl 3-(pyridin-2-yl)acrylate] was tested. Which pIC50 did it give?
Answer: 3.95

Question: With `C/C(=C\c1ccccc1)C(=O)O[C@H]1Cc2cc3ccc(=O)oc3cc2OC1(C)C` [Example 4, (S,E)-2,2-dimethyl-8-oxo-2,3,4,8-tetrahydropyrano[3,2-g]chromen-3-yl 2-methyl-3-phenylacrylate] as the molecule, how does the pIC50 read?
Answer: 4.09

Question: How did the pIC50 turn out when `CC1(C)Oc2cc3oc(=O)ccc3cc2C[C@@H]1OC(=O)CCc1ccc2c(c1)OCO2` [Example 6, (S)-2,2-dimethyl-8-oxo-2,3,4,8-tetrahydropyrano[3,2-g]chromen-3-yl 3-(benzo[d][1,3]dioxol-5-yl)propanoate] was run?
Answer: ≤ 3.66

Question: With `CC1(C)Oc2cc3oc(=O)ccc3cc2C[C@@H]1OC(=O)/C=C/c1ccc2c(c1)OCO2` [Example 7, (S,E)-2,2-dimethyl-8-oxo-2,3,4,8-tetrahydropyrano[3,2-g]chromen-3-yl 3-(benzo[d][1,3]dioxol-5-yl)acrylate] as the molecule, how does the pIC50 read?
Answer: < 3.70

Question: With `CN(C)S(=O)(=O)c1ccc(/C=C/C(=O)O[C@H]2Cc3cc4ccc(=O)oc4cc3OC2(C)C)cc1` [Example 8, (S,E)-2,2-dimethyl-8-oxo-2,3,4,8-tetrahydropyrano[3,2-g]chromen-3-yl 3-(4-(N,N-dimethylsulfamoyl)phenyl)acrylate] as the molecule, how does the pIC50 read?
Answer: < 3.70

Question: With `CC1(C)Oc2cc3oc(=O)ccc3cc2C[C@@H]1OC(=O)/C=C/c1ccc(C(F)(F)F)cc1` [Example 9, (S,E)-2,2-dimethyl-8-oxo-2,3,4,8-tetrahydropyrano[3,2-g]chromen-3-yl 3-(4-(trifluoromethyl)phenyl)acrylate] as the molecule, how does the pIC50 read?
Answer: < 3.70

Question: How did the pIC50 turn out when `CC1(C)Oc2cc3oc(=O)ccc3cc2C[C@H]1OC(=O)CCn1ccnc1` [Example 10, (R)-2,2-dimethyl-8-oxo-2,3,4,8-tetrahydropyrano[3,2-g]chromen-3-yl 3-(1H-imidazol-1-yl)propanoate] was run?
Answer: < 3.70

Question: `CC1(C)Oc2cc3oc(=O)ccc3cc2C[C@H]1OC(=O)CCc1ccccn1` [Example 11, (R)-2,2-dimethyl-8-oxo-2,3,4,8-tetrahydropyrano[3,2-g]chromen-3-yl 3-(pyridin-2-yl)propanoate] was tested. Which pIC50 did it give?
Answer: < 3.70

Question: `CC1(C)Oc2cc3oc(=O)ccc3cc2C[C@H]1OC(=O)/C=C/c1ccccn1` [Example 12, (R,E)-2,2-dimethyl-8-oxo-2,3,4,8-tetrahydropyrano[3,2-g]chromen-3-yl 3-(pyridin-2-yl)acrylate] was tested. Which pIC50 did it give?
Answer: 3.74

Question: With `C/C(=C\c1ccccc1)C(=O)O[C@@H]1Cc2cc3ccc(=O)oc3cc2OC1(C)C` [Example 13, (R,E)-2,2-dimethyl-8-oxo-2,3,4,8-tetrahydropyrano[3,2-g]chromen-3-yl 2-methyl-3-phenylacrylate] as the molecule, how does the pIC50 read?
Answer: 3.97

Question: How did the pIC50 turn out when `CC1(C)Oc2cc3oc(=O)ccc3cc2C[C@H]1OC(=O)/C=C/c1ccoc1` [Example 14, (R,E)-2,2-dimethyl-8-oxo-2,3,4,8-tetrahydropyrano[3,2-g]chromen-3-yl 3-(furan-3-yl)acrylate] was run?
Answer: 3.82

Question: How did the pIC50 turn out when `CC1(C)Oc2cc3oc(=O)ccc3cc2C[C@H]1OC(=O)CCc1ccc2c(c1)OCO2` [Example 15, (R)-2,2-dimethyl-8-oxo-2,3,4,8-tetrahydropyrano[3,2-g]chromen-3-yl 3-(benzo[d][1,3]dioxol-5-yl)propanoate] was run?
Answer: < 3.70

Question: `CC1(C)Oc2cc3oc(=O)ccc3cc2C[C@H]1OC(=O)/C=C/c1ccc2c(c1)OCO2` [Example 16, (R,E)-2,2-dimethyl-8-oxo-2,3,4,8-tetrahydropyrano[3,2-g]chromen-3-yl 3-(benzo[d][1,3]dioxol-5-yl)acrylate] was tested. Which pIC50 did it give?
Answer: < 3.70

Question: `CN(C)S(=O)(=O)c1ccc(/C=C/C(=O)O[C@@H]2Cc3cc4ccc(=O)oc4cc3OC2(C)C)cc1` [Example 17, (R,E)-2,2-dimethyl-8-oxo-2,3,4,8-tetrahydropyrano[3,2-g]chromen-3-yl 3-(4-(N,N-dimethylsulfamoyl)phenyl)acrylate] was tested. Which pIC50 did it give?
Answer: < 3.70

Question: With `CC1(C)Oc2cc3oc(=O)ccc3cc2C[C@H]1OC(=O)/C=C/c1ccc(C(F)(F)F)cc1` [Example 18, (R,E)-2,2-dimethyl-8-oxo-2,3,4,8-tetrahydropyrano[3,2-g]chromen-3-yl 3-(4-(trifluoromethyl)phenyl)acrylate] as the molecule, how does the pIC50 read?
Answer: 3.77

Question: How did the pIC50 turn out when `CC1(C)Oc2cc3oc(=O)ccc3cc2[C@@H](NC(=O)CCn2ccnc2)[C@@H]1O` [Example 19, N-((3S,4R)-3-hydroxy-2,2-dimethyl-8-oxo-2,3,4,8-tetrahydropyrano[3,2-g]chromen-4-yl)-3-(1H-imidazol-1-yl)propanamide] was run?
Answer: < 3.70

Question: How did the pIC50 turn out when `CC1(C)Oc2cc3oc(=O)ccc3cc2[C@@H](NC(=O)CCc2ccccn2)[C@@H]1O` [Example 20, N-((3S,4R)-3-hydroxy-2,2-dimethyl-8-oxo-2,3,4,8-tetrahydropyrano[3,2-g]chromen-4-yl)-3-(pyridin-2-yl)propanamide] was run?
Answer: < 3.70

Question: With `CC1(C)Oc2cc3oc(=O)ccc3cc2[C@@H](NC(=O)/C=C/c2ccccn2)[C@@H]1O` [Example 21, (E)-N-((3S,4R)-3-hydroxy-2,2-dimethyl-8-oxo-2,3,4,8-tetrahydropyrano[3,2-g]chromen-4-yl)-3-(pyridin-2-yl)acrylamide] as the molecule, how does the pIC50 read?
Answer: < 3.70

Question: How did the pIC50 turn out when `C/C(=C\c1ccccc1)C(=O)N[C@@H]1c2cc3ccc(=O)oc3cc2OC(C)(C)[C@H]1O` [Example 22, (E)-N-((3S,4R)-3-hydroxy-2,2-dimethyl-8-oxo-2,3,4,8-tetrahydropyrano[3,2-g]chromen-4-yl)-2-methyl-3-phenylacrylamide] was run?
Answer: < 3.70

Question: How did the pIC50 turn out when `CC1(C)Oc2cc3oc(=O)ccc3cc2[C@@H](NC(=O)/C=C/c2ccoc2)[C@@H]1O` [Example 23, (E)-3-(furan-3-yl)-N-((3S,4R)-3-hydroxy-2,2-dimethyl-8-oxo-2,3,4,8-tetrahydropyrano[3,2-g]chromen-4-yl)acrylamide] was run?
Answer: < 3.70

Question: With `CC1(C)Oc2cc3oc(=O)ccc3cc2[C@@H](NC(=O)CCc2ccc3c(c2)OCO3)[C@@H]1O` [Example 24, 3-(benzo[d][1,3]dioxol-5-yl)-N-((3S,4R)-3-hydroxy-2,2-dimethyl-8-oxo-2,3,4,8-tetrahydropyrano[3,2-g]chromen-4-yl)propanamide] as the molecule, how does the pIC50 read?
Answer: < 3.70

Question: `CC1(C)Oc2cc3oc(=O)ccc3cc2[C@@H](NC(=O)/C=C/c2ccc3c(c2)OCO3)[C@@H]1O` [Example 25, (E)-3-(benzo[d][1,3]dioxol-5-yl)-N-((3S,4R)-3-hydroxy-2,2-dimethyl-8-oxo-2,3,4,8-tetrahydropyrano[3,2-g]chromen-4-yl)acrylamide] was tested. Which pIC50 did it give?
Answer: 3.82

Question: `CN(C)S(=O)(=O)c1ccc(/C=C/C(=O)N[C@@H]2c3cc4ccc(=O)oc4cc3OC(C)(C)[C@H]2O)cc1` [Example 26, (E)-3-(4-(N,N-dimethylsulfamoyl)phenyl)-N-((3S,4R)-3-hydroxy-2,2-dimethyl-8-oxo-2,3,4,8-tetrahydropyrano[3,2-g]chromen-4-yl)acrylamide] was tested. Which pIC50 did it give?
Answer: < 3.70

Question: With `CC1(C)Oc2cc3oc(=O)ccc3cc2[C@@H](NC(=O)/C=C/c2ccc(C(F)(F)F)cc2)[C@@H]1O` [Example 27, (E)-N-((3S,4R)-3-hydroxy-2,2-dimethyl-8-oxo-2,3,4,8-tetrahydropyrano[3,2-g]chromen-4-yl)-3-(4-(trifluoromethyl)phenyl)acrylamide] as the molecule, how does the pIC50 read?
Answer: 4.13

same assay, conditions: Homo sapiens, A549, 48 h, Method 2 (marked *): 3.125-50 μM, 48 hours

Question: `CC(C)=CC(=O)O[C@H]1Cc2cc3ccc(=O)oc3cc2OC1(C)C` [Decursin, decursin] was tested. Which pIC50 did it give?
Answer: 4.52

Question: With `CC1(C)Oc2cc3oc(=O)ccc3cc2C[C@@H]1OC(=O)CCc1ccoc1` [Example 28, (S)-2,2-dimethyl-8-oxo-2,3,4,8-tetrahydropyrano[3,2-g]chromen-3-yl 3-(furan-3-yl)propanoate] as the molecule, how does the pIC50 read?
Answer: 4.02

Question: `CN(C)c1ccc(CC(=O)O[C@H]2Cc3cc4ccc(=O)oc4cc3OC2(C)C)cc1` [Example 29, (S)-2,2-dimethyl-8-oxo-2,3,4,8-tetrahydropyrano[3,2-g]chromen-3-yl 4-(dimethylamino)phenylacetate] was tested. Which pIC50 did it give?
Answer: 4.28
